The numbers were not newly measured in patent US7183112B2, “Uses for anti-malarial therapeutic agents” (APT Pharmaceuticals, LLC, priority 1999, dated 2007), which cites them from elsewhere.

Structures can show the parent of a compound that is named as a salt. Where two headings read alike, the source gives them in different places.

The conditions of data set [1]: cited from earlier work.
Data set [2] relates to allergic asthma. To be noted: Fahy et al. 1999, cited from earlier work.

Take `CCN(CCO)CCCC(C)Nc1ccnc2cc(Cl)ccc12` (stereo not drawn) [hydroxychloroquine sulfate]: the solubility in water result in data set [1] is recorded as “readily soluble”. For the compound “Anti IgE(E25): Anti IgE(E25), given intravenously or by inhalation for allergic asthma (Fahy et al.)”, the “efficacy for treating allergic asthma” value in data set [2] (inhalation) was “virtually ineffective”; in data set [2] (intravenous administration), “effective”.
